Data as given in ChEMBL document CHEMBL1201862, “PubChem BioAssay data set” (2004).
Calls of active or inactive are those of the source.

Columns and labels:
[1] = target: Serine/threonine-protein phosphatase PP1-alpha catalytic subunit (Homo sapiens, UniProt P62136); assay: PP1 phosphatase inhibitors, dose response, biochemical, fluorescence (AID 2394)
[2] = target: Serine/threonine-protein phosphatase (Homo sapiens, UniProt Q9BPW0); assay: PP5 phosphatase inhibitors, dose response, biochemical, fluorescence (AID 2395)
[3] = target: T1, Sentrin-specific protease 7 (Homo sapiens, UniProt Q9BQF6); type: functional;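 further: Luminescence-based dose-response confirmation of ultra-high-throughput screening hits, measuring inhibition of SENP7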
T1 sequence (Q9BQF6 whole entry): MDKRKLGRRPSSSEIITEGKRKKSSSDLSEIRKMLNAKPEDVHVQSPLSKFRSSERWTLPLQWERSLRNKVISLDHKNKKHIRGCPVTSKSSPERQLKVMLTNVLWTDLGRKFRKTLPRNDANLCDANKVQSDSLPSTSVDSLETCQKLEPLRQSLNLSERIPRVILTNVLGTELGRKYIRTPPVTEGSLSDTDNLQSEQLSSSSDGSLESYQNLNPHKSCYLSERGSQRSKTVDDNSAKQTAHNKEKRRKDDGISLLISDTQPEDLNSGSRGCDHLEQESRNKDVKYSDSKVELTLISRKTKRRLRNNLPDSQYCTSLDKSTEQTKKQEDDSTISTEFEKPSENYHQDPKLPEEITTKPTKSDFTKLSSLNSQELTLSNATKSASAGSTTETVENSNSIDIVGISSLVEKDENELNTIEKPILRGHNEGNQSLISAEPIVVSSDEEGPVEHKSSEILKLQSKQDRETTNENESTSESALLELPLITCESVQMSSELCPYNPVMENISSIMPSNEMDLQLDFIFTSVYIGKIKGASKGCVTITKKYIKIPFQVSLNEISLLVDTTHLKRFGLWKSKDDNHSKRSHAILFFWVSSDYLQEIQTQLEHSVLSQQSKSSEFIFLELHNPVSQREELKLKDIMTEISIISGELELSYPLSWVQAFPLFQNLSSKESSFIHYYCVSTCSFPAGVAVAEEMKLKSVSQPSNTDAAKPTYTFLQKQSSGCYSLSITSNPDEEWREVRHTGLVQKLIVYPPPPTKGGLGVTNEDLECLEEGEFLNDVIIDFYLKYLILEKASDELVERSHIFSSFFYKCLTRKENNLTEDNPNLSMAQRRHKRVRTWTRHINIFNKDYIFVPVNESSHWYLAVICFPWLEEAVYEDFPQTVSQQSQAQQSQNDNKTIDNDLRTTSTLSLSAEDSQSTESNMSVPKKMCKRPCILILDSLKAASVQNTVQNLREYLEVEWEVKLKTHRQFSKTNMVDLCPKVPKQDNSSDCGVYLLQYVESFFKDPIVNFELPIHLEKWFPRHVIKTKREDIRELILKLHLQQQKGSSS

[4] = target: T2, Tyrosyl-DNA phosphodiesterase 2 (Homo sapiens, UniProt O95551); assay: human TDP2 enzyme inhibitors, dose response, biochemical, epi absorbance, IC50 (AID 743297)
T2 sequence (O95551 whole entry): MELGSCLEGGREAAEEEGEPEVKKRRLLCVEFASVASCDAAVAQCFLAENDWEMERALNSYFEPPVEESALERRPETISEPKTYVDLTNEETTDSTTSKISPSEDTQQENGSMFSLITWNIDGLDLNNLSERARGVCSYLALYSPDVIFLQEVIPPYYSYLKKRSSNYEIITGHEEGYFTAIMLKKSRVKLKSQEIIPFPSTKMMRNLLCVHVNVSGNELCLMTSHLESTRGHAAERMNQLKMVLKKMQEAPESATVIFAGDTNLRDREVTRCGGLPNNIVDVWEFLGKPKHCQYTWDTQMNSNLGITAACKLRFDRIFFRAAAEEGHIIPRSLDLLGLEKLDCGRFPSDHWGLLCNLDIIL

[5] = target: T3, Interleukin-8 (Homo sapiens, UniProt P10145); assay: SAR analysis of GM-Tri-DAP induced IL-8 secretion in MCF-7/NOD1 cells - Set 2. [Related pubchem assays (depositor defined):AID1575, AID1578, AID2333]; type: functional, cell-based
T3 sequence (P10145 whole entry): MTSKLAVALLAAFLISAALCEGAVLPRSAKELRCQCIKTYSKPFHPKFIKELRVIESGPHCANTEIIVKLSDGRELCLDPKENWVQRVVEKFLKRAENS

[6] = target: Nucleotide-binding oligomerization domain-containing protein 2 (Homo sapiens, UniProt Q9HC29); assay: NOD2 inhibitors, SAR follow-up, set 2 (AID 2475); type: functional
[7] = target: Glucose-6-phosphate 1-dehydrogenase (Homo sapiens, UniProt P11413); assay: human G6PD enzyme inhibitors, dose response, selectivity assay for P. falciparum G6PD inhibitor project, biochemical, fluorescence (AID 504792); type: functional
[8] = cells; type: functional
[9] = test system: CHO; assay: cytotoxicity in TLR9-MyD88 CHO cells, dose response, cytotoxicity control for TLR9-MyD88 binding inhibitor project, cell-based, luminescence (AID 588339); type: functional, hamster; conditions: Cricetulus griseus;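 further: CHO cells stably coexpressing TLR9 and MyD88 fusions from primary screen; compound exposure lasted 48 hours before viability readout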
[10] = target: T4, Replicative DNA helicase DnaB (Mycobacterium tuberculosis, UniProt P9WMR3); assay: DnaB intein splicing inhibitors, dose response, biochemical, cell-free fluorescence (AID 449749); type: functional
T4 sequence (P9WMR3 whole entry): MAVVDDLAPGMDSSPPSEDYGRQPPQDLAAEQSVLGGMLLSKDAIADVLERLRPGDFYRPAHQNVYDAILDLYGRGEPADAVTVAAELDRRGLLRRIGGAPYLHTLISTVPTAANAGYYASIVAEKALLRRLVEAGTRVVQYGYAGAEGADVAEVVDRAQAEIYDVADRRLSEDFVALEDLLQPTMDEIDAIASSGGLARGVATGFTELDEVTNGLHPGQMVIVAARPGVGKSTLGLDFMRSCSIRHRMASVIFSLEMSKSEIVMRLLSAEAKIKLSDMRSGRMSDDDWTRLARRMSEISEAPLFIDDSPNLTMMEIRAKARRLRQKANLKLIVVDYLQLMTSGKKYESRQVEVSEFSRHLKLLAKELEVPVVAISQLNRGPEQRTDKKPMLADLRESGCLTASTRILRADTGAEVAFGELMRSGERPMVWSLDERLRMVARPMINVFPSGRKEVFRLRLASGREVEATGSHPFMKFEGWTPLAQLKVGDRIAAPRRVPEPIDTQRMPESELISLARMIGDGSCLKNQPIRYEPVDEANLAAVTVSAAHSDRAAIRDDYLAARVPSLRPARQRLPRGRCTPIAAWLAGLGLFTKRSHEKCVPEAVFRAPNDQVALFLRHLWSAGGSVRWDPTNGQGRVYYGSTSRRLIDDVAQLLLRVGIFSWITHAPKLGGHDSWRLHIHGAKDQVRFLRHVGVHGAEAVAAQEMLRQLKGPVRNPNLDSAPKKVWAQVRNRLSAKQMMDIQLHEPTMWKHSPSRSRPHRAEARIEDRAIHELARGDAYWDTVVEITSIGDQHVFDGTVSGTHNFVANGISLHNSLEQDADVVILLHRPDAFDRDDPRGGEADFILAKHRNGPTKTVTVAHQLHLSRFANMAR

[11] = test system: INS1; assay: beta cell apoptosis inhibitors, cytokine rescue, dose response, luminescence, retest (AID 449756); type: functional, cell-based; conditions: Rattus norvegicus;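 further: cell death triggered by IL-1 beta plus TNF-alpha plus IFN-gamma mixture; protective hits raise ATP signal compared with cytokine alone wells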
[12] = HepG2 cell cytotoxicity, dose response, cytotoxicity control for Shn3 inhibitor project, CellTiter-Glo, cherry-picked (AID 624134); type: functional, cell-based

Serine/threonine-protein phosphatase, sequence (Q9BPW0 whole entry): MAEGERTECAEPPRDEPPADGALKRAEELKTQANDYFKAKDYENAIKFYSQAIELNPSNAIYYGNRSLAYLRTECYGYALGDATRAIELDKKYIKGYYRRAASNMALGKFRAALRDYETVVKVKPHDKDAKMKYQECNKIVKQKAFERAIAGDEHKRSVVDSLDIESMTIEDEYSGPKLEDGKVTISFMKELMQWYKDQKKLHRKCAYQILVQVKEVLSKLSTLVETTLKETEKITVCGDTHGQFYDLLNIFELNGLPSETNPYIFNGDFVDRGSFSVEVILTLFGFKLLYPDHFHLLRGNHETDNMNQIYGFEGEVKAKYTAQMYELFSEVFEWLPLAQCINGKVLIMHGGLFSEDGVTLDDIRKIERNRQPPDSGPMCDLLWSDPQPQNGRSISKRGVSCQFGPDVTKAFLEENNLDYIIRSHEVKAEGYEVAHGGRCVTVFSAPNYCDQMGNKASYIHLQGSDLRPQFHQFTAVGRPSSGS
Serine/threonine-protein phosphatase PP1-alpha catalytic subunit, sequence (P62136 whole entry): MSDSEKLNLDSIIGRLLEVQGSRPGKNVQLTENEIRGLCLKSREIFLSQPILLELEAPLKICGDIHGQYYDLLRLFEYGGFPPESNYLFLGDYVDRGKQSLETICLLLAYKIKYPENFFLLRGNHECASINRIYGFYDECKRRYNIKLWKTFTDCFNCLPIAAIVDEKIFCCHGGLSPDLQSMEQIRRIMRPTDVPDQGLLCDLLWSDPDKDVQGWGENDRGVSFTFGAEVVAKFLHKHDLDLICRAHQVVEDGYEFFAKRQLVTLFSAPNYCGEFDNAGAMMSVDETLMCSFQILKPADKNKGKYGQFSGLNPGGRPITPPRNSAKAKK
Nucleotide-binding oligomerization domain-containing protein 2, sequence (Q9HC29 whole entry, the tested form may be a part): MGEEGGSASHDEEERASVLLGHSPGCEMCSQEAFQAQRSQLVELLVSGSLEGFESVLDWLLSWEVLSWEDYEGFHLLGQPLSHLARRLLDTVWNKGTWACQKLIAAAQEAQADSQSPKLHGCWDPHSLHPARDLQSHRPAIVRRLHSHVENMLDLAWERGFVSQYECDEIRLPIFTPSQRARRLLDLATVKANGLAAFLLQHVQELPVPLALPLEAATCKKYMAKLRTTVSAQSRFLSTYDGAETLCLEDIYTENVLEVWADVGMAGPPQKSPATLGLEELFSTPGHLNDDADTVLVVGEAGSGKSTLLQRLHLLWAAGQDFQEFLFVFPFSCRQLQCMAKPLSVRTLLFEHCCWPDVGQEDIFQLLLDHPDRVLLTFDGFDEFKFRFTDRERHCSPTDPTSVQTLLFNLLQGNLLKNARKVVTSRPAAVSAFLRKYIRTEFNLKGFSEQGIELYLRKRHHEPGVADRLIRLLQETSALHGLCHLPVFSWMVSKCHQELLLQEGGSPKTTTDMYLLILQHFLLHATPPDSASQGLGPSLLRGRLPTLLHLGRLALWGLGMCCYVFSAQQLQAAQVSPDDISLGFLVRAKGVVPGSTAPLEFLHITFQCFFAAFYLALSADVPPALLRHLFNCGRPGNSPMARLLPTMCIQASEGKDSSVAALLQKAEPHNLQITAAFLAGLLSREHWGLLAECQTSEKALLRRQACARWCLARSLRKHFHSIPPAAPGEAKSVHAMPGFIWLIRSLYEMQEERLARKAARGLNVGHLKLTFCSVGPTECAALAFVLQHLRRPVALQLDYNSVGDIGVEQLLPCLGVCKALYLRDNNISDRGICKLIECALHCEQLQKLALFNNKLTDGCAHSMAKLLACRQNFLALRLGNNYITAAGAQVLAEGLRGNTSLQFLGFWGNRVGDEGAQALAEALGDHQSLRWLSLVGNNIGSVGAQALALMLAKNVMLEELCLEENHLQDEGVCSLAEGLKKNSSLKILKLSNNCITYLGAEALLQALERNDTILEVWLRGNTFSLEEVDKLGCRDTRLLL
Glucose-6-phosphate 1-dehydrogenase, sequence (P11413 whole entry): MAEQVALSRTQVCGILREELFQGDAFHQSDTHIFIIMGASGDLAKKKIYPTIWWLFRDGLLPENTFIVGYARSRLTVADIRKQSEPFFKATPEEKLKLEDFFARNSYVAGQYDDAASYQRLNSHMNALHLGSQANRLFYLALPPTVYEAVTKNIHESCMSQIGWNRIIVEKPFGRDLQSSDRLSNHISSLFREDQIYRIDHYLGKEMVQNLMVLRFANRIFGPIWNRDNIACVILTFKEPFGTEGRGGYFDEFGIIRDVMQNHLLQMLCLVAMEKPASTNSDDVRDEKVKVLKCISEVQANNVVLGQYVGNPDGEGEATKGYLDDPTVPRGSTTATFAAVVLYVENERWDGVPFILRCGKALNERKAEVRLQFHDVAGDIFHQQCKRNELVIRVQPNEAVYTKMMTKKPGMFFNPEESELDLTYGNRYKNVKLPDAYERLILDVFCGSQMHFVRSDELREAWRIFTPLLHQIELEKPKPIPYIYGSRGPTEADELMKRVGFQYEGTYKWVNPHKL

O=C(NC1(O)C(=O)c2ccccc2C1=O)c1ccc(C(F)(F)F)cc1
IC50 [1]: > 67 µM (not active) | IC50 [2]: > 0.828 µM (active) | IC50 [3]: 3.51 µM (active) | IC50 [4]: 3.85 µM (active)

Cn1c(=O)[nH]c(=O)c2c1nc([N+](=O)[O-])n2Cc1ccccc1
IC50 [5]: 2.16 µM (active) | IC50 [6]: 0.748 µM (active) | IC50 [7]: 47.9 µM (inactive) | IC50 [8]: 4.75 µM (active) | IC50 [9]: 2.23 µM (active) | AC50 [10]: 26.2 µM (active) | AC50 [11]: 7.36 µM (active) | AC50 [12]: 18.3 µM (active)

O=C(NC1(O)C(=O)c2ccccc2C1=O)c1c(Cl)cccc1Cl
IC50 [1]: > 67 µM (not active) | IC50 [2]: > 2.48 µM (active) | IC50 [3]: 3.76 µM (active) | AC50 [10]: 17.3 µM (active) | IC50 [4]: 4.2 µM (active)

O=C(COC(=O)c1ccc([N+](=O)[O-])s1)Nc1ncc(C(F)(F)F)cc1Cl
IC50 [3]: 10.5 µM (active)

CCN(c1ccccc1)c1cc2ccccc2c(=O)[nH]1
IC50 [3]: 3.37 µM (active) | AC50 [10]: > 380 µM (inactive)
